The record followed here is patent US20230286969A1, “AROMATIC SPIRO RING AMIDE DERIVATIVES FOR THE TREATMENT AND PROPHYLAXIS OF HEPATITIS B VIRUS INFECTION” (Hoffmann-La Roche Inc., priority 2020, published 2023).

Holding throughout (type): cell-based
For one series, the system named is HBsAg. Briefly: PHH HBV natural infection assay, HBsAg (alphalisa). The conditions noted are these: Hepatitis B virus, Hepatocyte, 72 h, read-out: HBsAg IC50, HBV-infected primary human hepatocytes, supernatant, compound medium refreshed two times with 72-hour interval. Here is the method:
(§1) Detailed procedures regarding primary human hepatocyte (PHH) HBV natural infection assay are described as below. One tube of frozen PHH (10 million cells) is thawed in 37° C. water bath and then transferred to 20 mL of PHH thawing medium (Sigma, InVitroGRO HT Medium, Cat. S03319) with gently mixing. The cells were then centrifuged at […] for 5 min, the supernatant was discarded and the tube was refilled with 25 mL of PHH plating medium (Sigma, InVitroGRO CP Medium, Cat. S03317). The tube was shaken very gently to re-suspend all cells, and then 50 μl of cells were transferred to each well 384-well collagen I coated plate with appropriate liquid handling equipment, e.g. Integra VIAFLO384 or Agilent Bravo. The cells were then cultured for 24 hours in a cell incubator. For HBV infection, after PHH attachment on the culture plate, the plating medium was removed and replenished with PHH culture medium containing HBV virus. The PHH culture medium was prepared with Dulbecco's Modified Eagle Medium (DMEM)/F12 (1:1 in volume ratio) containing 10% fetal bovine serum (Gibco, Cat. 10099141), 5 ng/mL human epidermal growth factor (Gibco, Cat.PHG0311L), 20 ng/mL dexamethasone (Sigma, Cat.D4902-100 mg), 250 ng/mL human recombinant insulin (Gibco, Cat.41400045) and 100 U/mL penicillin. HBV virus at 200 genome equivalent (GE) per cell with 4% PEG8000 (Sigma, Cat.P1458) containing culture medium were added to the PHH culture medium for infection. The cells were then cultured for 24 hours in cell incubator. Then the cell culture supernatant was removed. The HBV-infected PHH were cultured with sandwich culture method with PHH culture medium containing 1% DMSO and 0.25 mg/mL matrix gel for 72 hours. The supernatant was then refreshed with PHH culture medium containing different concentrations of testing compounds for two times with 72-hour interval. At the end of treatment, the supernatant was collected for viral markers measurements, including HBsAg, HBeAg, HBV DNA and cytotoxicity. HBsAg and HBeAg were detected using alphalisa method using their specific antibodies. For HBV DNA detection, HBV DNA Quantitative Fluorescence Diagnostic Kit (Sansure Biotech Inc.) was used following the manufacture's protocol. Cytotoxicity was determined using Cell Counting Kit-8 (CCK8, Dojindo Molecular Technologies, Inc.).
(§2) The compounds of the present invention were tested for their capacity to inhibit HBsAg and HBeAg as described herein.

Another series has as its system HBeAg. Briefly: PHH HBV natural infection assay, HBeAg (alphalisa). The note with it: Hepatitis B virus, Hepatocyte, 72 h, read-out: HbeAg IC50, HBV-infected primary human hepatocytes, supernatant, compound medium refreshed two times with 72-hour interval. How it is done:
as §1, §2
(In Alpha technology, singlet oxygen from a donor bead excites a nearby acceptor bead.)

Series [1] can be described thus: PHH natural infection assay, cytotoxicity (Cell Counting Kit-8). The note with it: human, HBV-infected primary human hepatocytes, CCK8, end of treatment. Here is the method: as §1

For `CC(C)S(=N)(=O)Cc1ccc(C(=O)NC2CC3(C2)CC(c2nc4cc(Cl)ccc4o2)C3)o1` (stereo not drawn) [Example 59, N-[6-(5-chloro-1,3-benzoxazol-2-yl)spiro[3.3]heptan-2-yl]-5-[(isopropylsulfonimidoyl)methyl]furan-2-carboxamide], the IC50 with HBsAg came out at 3.81 µM; in the series with HBeAg, 2.6 µM. The molecule further gave a CC50 at 144 h in series [1] above 100 µM.

In the case of `O=C(NC1CC2(C1)CC(c1nc3cc(Cl)cnc3o1)C2)c1ccc(S(=O)(=O)C2CC2)o1` (stereo not drawn) [Example 49, N-[6-(6-chlorooxazolo[5,4-b]pyridin-2-yl)spiro[3.3]heptan-2-yl]-5-cyclopropylsulfonyl-furan-2-carboxamide], the values for the IC50 in the series with HBsAg and in the series on HBeAg were 2.4 µM and 1.74 µM, respectively. The molecule further gave a CC50 at 144 h in series [1] of 84.5 µM.

For the molecule `N=S(=O)(c1ccc(C(=O)NC2CC3(C2)CC(c2nc4cnc(Cl)cc4o2)C3)o1)C1CC1` (stereo not drawn) [Example 65, N-[6-(6-chlorooxazolo[4,5-c]pyridin-2-yl)spiro[3.3]heptan-2-yl]-5-(cyclopropylsulfonimidoyl)furan-2-carboxamide], the 50% inhibitory concentration (IC50) in the series with HBsAg was found to be 6.38 µM; with HBeAg it was 5.83 µM. In series [1], this molecule gave a 50% cytotoxic concentration (CC50) at 144 h above 100 µM.

As to `O=C(NC1CC2(C1)CC(c1nc3cc(Cl)ccc3o1)C2)c1ccc(S(=O)(=O)NC(=O)C2CCCC2)o1` (stereo not drawn) [Example 81, N-[6-(5-chloro-1,3-benzoxazol-2-yl)spiro[3.3]heptan-2-yl]-5-(cyclopentanecarbonylsulfamoyl)furan-2-carboxamide], the concentration for half-maximal inhibition (IC50) in the series on HBsAg was 1.74 µM; with HBeAg it was 0.796 µM. In series [1], this molecule had a 50% cytotoxic concentration (CC50) at 144 h of 11.3 µM.

Regarding `CC(C)CS(=N)(=O)c1ccc(C(=O)NC2CC3(C2)CC(c2nc4cc(Cl)ccc4o2)C3)o1` (stereo not drawn) [Example 55, N-[6-(5-chloro-1,3-benzoxazol-2-yl)spiro[3.3]heptan-2-yl]-5-(isobutylsulfonimidoyl)furan-2-carboxamide], the IC50 turned out to be 0.802 µM with HBsAg and 0.988 µM in the series on HBeAg. This molecule also displayed a cytotoxic concentration (CC50) at 144 h in series [1] of 83.3 µM.

In the case of `O=C(NC1CC2(C1)CC(c1nc3cc(Cl)ccc3o1)C2)c1ccc(S(=O)(=O)CC2CC2)o1` (stereo not drawn) [Example 20, N-[6-(5-chloro-1,3-benzoxazol-2-yl)spiro[3.3]heptan-2-yl]-5-(cyclopropylmethylsulfonyl)furan-2-carboxamide], the results for the IC50 with HBsAg and with HBeAg were 0.445 µM and 0.18 µM, respectively. This molecule also showed a 50% cytotoxic concentration (CC50) at 144 h in series [1] of 89.2 µM.

Turning to `NS(=O)(=O)c1ccc(C(=O)NC2CC3(C2)CC(c2nc4cc(Cl)ccc4o2)C3)o1` (stereo not drawn) [Example 29, N-[6-(5-chloro-1,3-benzoxazol-2-yl)spiro[3.3]heptan-2-yl]-5-sulfamoyl-furan-2-carboxamide], the half-inhibitory concentration (IC50) with HBsAg worked out at 0.534 µM; with HBeAg, 0.509 µM. Also, in series [1], the CC50 at 144 h was 94.2 µM.

Regarding `CN1CC(CS(=O)(=O)c2ccc(C(=O)NC3CC4(C3)CC(c3nc5cc(Cl)ccc5o3)C4)o2)C1` (stereo not drawn) [Example 25, N-[6-(5-chloro-1,3-benzoxazol-2-yl)spiro[3.3]heptan-2-yl]-5-[(1-methylazetidin-3-yl)methylsulfonyl]furan-2-carboxamide], the IC50 with HBsAg was determined as 4.19 µM; in the series with HBeAg it was 3.73 µM. For the same molecule, the cytotoxic concentration (CC50) at 144 h in series [1] is above 10 µM.

For `O=C(NC1CC2(C1)CC(c1nc3cc(Cl)ccc3o1)C2)c1ccc(C(=O)C2CC2)o1` (stereo not drawn) [Example 10, N-[6-(5-chloro-1,3-benzoxazol-2-yl)spiro[3.3]heptan-2-yl]-5-(cyclopropanecarbonyl)furan-2-carboxamide], the half-inhibitory concentration (IC50) in the series on HBsAg was determined as 3.35 µM; with HBeAg it was 2.94 µM. Further, the half-maximal cytotoxic concentration (CC50) at 144 h in series [1] stood at 96.1 µM.

On to `O=C(NC1CC2(C1)CC(c1nc3cc(Cl)ccc3o1)C2)c1ccc(S(=O)(=O)CC2CC(F)(F)C2)o1` (stereo not drawn) [Example 27, N-[6-(5-chloro-1,3-benzoxazol-2-yl)spiro[3.3]heptan-2-yl]-5-[(3,3-difluorocyclobutyl)methylsulfonyl]furan-2-carboxamide], for which the concentration for half-maximal inhibition (IC50) with HBsAg turned out to be 0.152 µM; in the series with HBeAg it was 0.116 µM. For the same molecule, in series [1], the half-maximal cytotoxic concentration (CC50) at 144 h is above 100 µM.

One may read the IC50 as the point on the concentration scale where inhibition reaches its midpoint. The CC50 is the concentration giving 50% cytotoxicity. Higher therefore signals lower toxicity to the cells.
